In ChEMBL document CHEMBL3351700, “Synthesis, GluN2B affinity and selectivity of benzo[7]annulen-7-amines” (Bioorg Med Chem, 2014):

Target: not listed separately
Experiment: Displacement of [3H]DTG from sigma2 receptor in rat liver membranes after 180 mins by scintillation counting method
Assay type: cell membranes, Membrane

| Structure (SMILES) | Ki [nM] |
| --- | --- |
| c1ccc([C@H]2CC[C@H](NC3CCc4ccccc4CC3)CC2)cc1 | 14 |
| COc1ccc2c(c1)CCN(CCCCc1ccccc1)CC2O (stereo unspecified) | 554 |
| c1ccc(N2CCN(C3CCc4ccccc4CC3)CC2)cc1 | 200 |
| c1ccc([C@H]2CC[C@@H](NC3CCc4ccccc4CC3)CC2)cc1 | 3 |
| c1ccc(CC2CCN(C3CCc4ccccc4CC3)CC2)cc1 | 5.4 |
| c1ccc(C2CCN(C3CCc4ccccc4CC3)CC2)cc1 | 18 |

Results, then the compound that gave them:

| Ki [nM] | Structure (SMILES) |
| --- | --- |
| 15 | COc1ccc2c(c1)CCC(NCCCc1ccccc1)CC2 (stereo unspecified) |
| 203 | c1ccc(CNC2CCc3ccccc3CC2)cc1 |
| 198 | c1ccc(CCNC2CCc3ccccc3CC2)cc1 |
| 27 | c1ccc(CCCNC2CCc3ccccc3CC2)cc1 |
| 55 | c1ccc(CCCCNC2CCc3ccccc3CC2)cc1 |
| 9.2 | COc1ccc2c(c1)CCC(NCCCc1ccccc1)CC2O (stereo unspecified) |

Species: Cavia porcellus
Experiment: Displacement of [3H]-(+)-MK-801 from N-methyl D-aspartate receptor phencyclidine binding site in guinea pig brain cortex membranes at 1 uM after 150 mins by scintillation counting method
Assay type: cell membranes

| Structure (SMILES) | inhibition [%] |
| --- | --- |
| c1ccc([C@H]2CC[C@H](NC3CCc4ccccc4CC3)CC2)cc1 | 30 |
| COc1ccc2c(c1)CCN(CCCCc1ccccc1)CC2O (stereo unspecified) | 22 |
| c1ccc(N2CCN(C3CCc4ccccc4CC3)CC2)cc1 | 5 |
| c1ccc([C@H]2CC[C@@H](NC3CCc4ccccc4CC3)CC2)cc1 | 43 |
| c1ccc(CC2CCN(C3CCc4ccccc4CC3)CC2)cc1 | 30 |
| c1ccc(C2CCN(C3CCc4ccccc4CC3)CC2)cc1 | 11 |

Now from value to compound:

| inhibition [%] | Structure (SMILES) |
| --- | --- |
| 0 | COc1ccc2c(c1)CCC(NCCCc1ccccc1)CC2 (stereo unspecified) |
| 16 | c1ccc(CNC2CCc3ccccc3CC2)cc1 |
| 0 | c1ccc(CCNC2CCc3ccccc3CC2)cc1 |
| 0 | c1ccc(CCCNC2CCc3ccccc3CC2)cc1 |
| 2 | c1ccc(CCCCNC2CCc3ccccc3CC2)cc1 |
| 12 | COc1ccc2c(c1)CCC(NCCCc1ccccc1)CC2O (stereo unspecified) |

Target: Glutamate receptor ionotropic, NMDA 2B (Homo sapiens, UniProt Q05586+Q13224)
Experiment: Displacement of [3H]ifenprodil from human GluN2B expressed in mouse L(tk-) cells co-expressing GluN1a after 120 mins by scintillation counting method
Assay type: cell-based

Glutamate receptor ionotropic, NMDA 2B, sequence (Q13224 whole entry, one chain of several): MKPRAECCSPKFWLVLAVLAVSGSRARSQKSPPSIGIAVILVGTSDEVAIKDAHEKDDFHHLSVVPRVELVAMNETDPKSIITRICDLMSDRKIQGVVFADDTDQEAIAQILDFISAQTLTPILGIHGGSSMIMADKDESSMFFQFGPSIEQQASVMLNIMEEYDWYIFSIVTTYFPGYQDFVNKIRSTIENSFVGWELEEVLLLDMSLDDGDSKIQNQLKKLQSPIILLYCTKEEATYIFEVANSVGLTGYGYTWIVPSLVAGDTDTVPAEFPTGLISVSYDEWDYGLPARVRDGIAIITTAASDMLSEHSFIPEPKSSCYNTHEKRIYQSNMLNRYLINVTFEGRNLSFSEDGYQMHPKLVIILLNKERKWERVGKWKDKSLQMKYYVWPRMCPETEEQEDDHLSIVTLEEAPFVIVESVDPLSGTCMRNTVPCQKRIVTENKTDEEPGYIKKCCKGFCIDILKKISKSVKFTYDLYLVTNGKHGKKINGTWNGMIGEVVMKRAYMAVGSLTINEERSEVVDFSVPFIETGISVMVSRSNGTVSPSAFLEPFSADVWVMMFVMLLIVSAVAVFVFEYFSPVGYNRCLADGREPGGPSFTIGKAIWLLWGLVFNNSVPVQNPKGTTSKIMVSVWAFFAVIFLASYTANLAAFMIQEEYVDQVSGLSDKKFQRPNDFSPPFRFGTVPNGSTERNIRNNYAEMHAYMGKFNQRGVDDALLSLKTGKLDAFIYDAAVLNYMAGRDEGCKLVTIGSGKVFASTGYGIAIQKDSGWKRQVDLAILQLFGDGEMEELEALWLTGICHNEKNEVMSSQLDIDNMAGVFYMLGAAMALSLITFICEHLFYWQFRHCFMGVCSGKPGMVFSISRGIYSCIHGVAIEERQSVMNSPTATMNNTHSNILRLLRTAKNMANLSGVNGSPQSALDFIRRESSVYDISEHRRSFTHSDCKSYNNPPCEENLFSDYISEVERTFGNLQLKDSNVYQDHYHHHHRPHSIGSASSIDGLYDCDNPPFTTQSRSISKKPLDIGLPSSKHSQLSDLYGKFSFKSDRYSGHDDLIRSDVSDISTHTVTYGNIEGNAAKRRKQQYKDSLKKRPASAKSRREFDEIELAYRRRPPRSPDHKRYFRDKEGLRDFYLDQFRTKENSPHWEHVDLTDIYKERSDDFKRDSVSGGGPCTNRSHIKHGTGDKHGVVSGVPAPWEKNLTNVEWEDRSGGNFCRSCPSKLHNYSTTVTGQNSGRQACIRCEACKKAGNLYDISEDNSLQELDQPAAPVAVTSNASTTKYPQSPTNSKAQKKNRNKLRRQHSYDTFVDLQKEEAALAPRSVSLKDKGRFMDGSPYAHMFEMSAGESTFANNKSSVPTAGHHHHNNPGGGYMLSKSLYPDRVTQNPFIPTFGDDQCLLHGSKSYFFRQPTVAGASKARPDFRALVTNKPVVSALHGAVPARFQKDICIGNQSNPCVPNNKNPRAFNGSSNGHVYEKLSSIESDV

| Structure (SMILES) | Ki [nM] |
| --- | --- |
| c1ccc([C@H]2CC[C@H](NC3CCc4ccccc4CC3)CC2)cc1 | 5.7 |
| c1ccc(N2CCN(C3CCc4ccccc4CC3)CC2)cc1 | 12 |
| c1ccc([C@H]2CC[C@@H](NC3CCc4ccccc4CC3)CC2)cc1 | 2.3 |
| c1ccc(CC2CCN(C3CCc4ccccc4CC3)CC2)cc1 | 2.9 |
| c1ccc(C2CCN(C3CCc4ccccc4CC3)CC2)cc1 | 6.9 |

Continued, values first:

| Ki [nM] | Structure (SMILES) |
| --- | --- |
| 10 | COc1ccc2c(c1)CCC(NCCCc1ccccc1)CC2 (stereo unspecified) |
| 57 | c1ccc(CNC2CCc3ccccc3CC2)cc1 |
| 20 | c1ccc(CCNC2CCc3ccccc3CC2)cc1 |
| 16 | c1ccc(CCCNC2CCc3ccccc3CC2)cc1 |
| 17 | c1ccc(CCCCNC2CCc3ccccc3CC2)cc1 |
| 16 | COc1ccc2c(c1)CCC(NCCCc1ccccc1)CC2O (stereo unspecified) |

Target: Sigma non-opioid intracellular receptor 1 (Cavia porcellus, UniProt Q60492)
Experiment: Displacement of [3H](+)-pentazocine from sigma1 receptor in guinea pig brain membranes after 180 mins by scintillation counting method
Assay type: cell membranes, Membrane

Sigma non-opioid intracellular receptor 1, sequence (Q60492 whole entry): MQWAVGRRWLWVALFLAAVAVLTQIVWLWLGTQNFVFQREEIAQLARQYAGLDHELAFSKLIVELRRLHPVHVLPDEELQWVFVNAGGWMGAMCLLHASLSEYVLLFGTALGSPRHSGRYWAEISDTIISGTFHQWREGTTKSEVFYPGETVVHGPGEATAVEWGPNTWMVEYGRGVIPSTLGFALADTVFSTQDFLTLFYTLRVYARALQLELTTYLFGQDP

| Structure (SMILES) | Ki [nM] |
| --- | --- |
| c1ccc([C@H]2CC[C@H](NC3CCc4ccccc4CC3)CC2)cc1 | 20 |
| c1ccc(N2CCN(C3CCc4ccccc4CC3)CC2)cc1 | 182 |
| c1ccc([C@H]2CC[C@@H](NC3CCc4ccccc4CC3)CC2)cc1 | 14 |
| c1ccc(CC2CCN(C3CCc4ccccc4CC3)CC2)cc1 | 5.7 |
| c1ccc(C2CCN(C3CCc4ccccc4CC3)CC2)cc1 | 22 |

Now from value to compound:

| Ki [nM] | Structure (SMILES) |
| --- | --- |
| 27 | COc1ccc2c(c1)CCC(NCCCc1ccccc1)CC2 (stereo unspecified) |
| 107 | c1ccc(CNC2CCc3ccccc3CC2)cc1 |
| 22 | c1ccc(CCNC2CCc3ccccc3CC2)cc1 |
| 150 | c1ccc(CCCNC2CCc3ccccc3CC2)cc1 |
| 216 | c1ccc(CCCCNC2CCc3ccccc3CC2)cc1 |
| 132 | COc1ccc2c(c1)CCC(NCCCc1ccccc1)CC2O (stereo unspecified) |
